Experimental data published in patent publication US12448394B2, “Heterocyclic pyrazole derivatives as type III receptor tyrosine kinase inhibitors” (DEVELOPMENT CENTER FOR BIOTECHNOLOGY, priority 2019, dated 2025).

What was measured:
FLT3-D835Y mutant kinase = target: T1, FLT3-D835Y mutant kinase (Homo sapiens, UniProt P36888, D835Y); assay: FLT3-D835Y mutant kinase assay (AlphaScreen); assay type: biochemical; settings: read-out: Ranking of IC50 values, FLT3-D835Y
T1 construct: purchased SignalChem
T1 sequence (P36888 27-993 D835Y): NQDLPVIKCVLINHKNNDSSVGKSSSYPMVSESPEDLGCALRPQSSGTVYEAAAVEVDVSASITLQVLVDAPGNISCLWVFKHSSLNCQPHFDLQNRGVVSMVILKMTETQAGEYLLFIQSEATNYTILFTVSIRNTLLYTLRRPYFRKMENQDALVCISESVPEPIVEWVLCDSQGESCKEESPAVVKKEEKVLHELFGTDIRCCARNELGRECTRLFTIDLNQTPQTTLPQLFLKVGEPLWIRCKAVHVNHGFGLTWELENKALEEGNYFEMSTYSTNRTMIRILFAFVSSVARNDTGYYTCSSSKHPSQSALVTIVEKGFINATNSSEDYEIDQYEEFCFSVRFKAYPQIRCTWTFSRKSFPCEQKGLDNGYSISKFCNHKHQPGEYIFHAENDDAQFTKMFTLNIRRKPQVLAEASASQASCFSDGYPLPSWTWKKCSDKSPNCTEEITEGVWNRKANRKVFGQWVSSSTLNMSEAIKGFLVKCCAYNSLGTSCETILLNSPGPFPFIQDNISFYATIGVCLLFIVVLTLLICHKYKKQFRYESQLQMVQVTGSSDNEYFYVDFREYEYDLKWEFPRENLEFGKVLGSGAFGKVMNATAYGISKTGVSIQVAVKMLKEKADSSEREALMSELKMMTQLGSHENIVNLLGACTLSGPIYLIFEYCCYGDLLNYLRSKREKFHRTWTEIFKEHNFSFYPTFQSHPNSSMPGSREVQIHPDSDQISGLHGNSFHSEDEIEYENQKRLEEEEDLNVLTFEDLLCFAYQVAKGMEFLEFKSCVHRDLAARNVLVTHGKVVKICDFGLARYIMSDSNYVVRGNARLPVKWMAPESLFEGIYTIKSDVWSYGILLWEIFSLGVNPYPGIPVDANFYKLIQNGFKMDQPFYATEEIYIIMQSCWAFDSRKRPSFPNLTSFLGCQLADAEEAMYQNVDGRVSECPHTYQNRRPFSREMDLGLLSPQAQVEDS
Procedure, shortened: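 Recombinant FLT3-D835Y (1 ng) phosphorylated biotin-poly(Glu4:Tyr1) at 10 μM ATP, pH 7.0 MOPS buffer with 10 mM MgCl2, for 30 min at 30 °C, stopped with EDTA. Product was read by AlphaScreen. IC50 came from serial dilutions run in duplicate.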

MET kinase = target: T2, MET kinase (Homo sapiens, UniProt P08581); assay: MET kinase assay (AlphaScreen, counter screen); assay type: biochemical; settings: read-out: Ranking of IC50 values, MET
T2 construct: purchased SignalChem
Procedure, shortened: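 Recombinant MET kinase (1 ng) phosphorylated biotinylated poly(Glu4:Tyr1) with […] ATP (so in the source) in MOPS pH 7.0 buffer with 10 mM MgCl2, 45 min at 30 °C, stopped with EDTA. Product read by AlphaScreen; IC50 from serial dilutions run in duplicate.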

[1] = tested on: Molm-14 human acute myeloid leukemia cell with FLT3-ITD mutation; assay: Molm-14 cell proliferation assay (CellTiter 96); assay type: cell-based; settings: Homo sapiens; Molm-14 cells, 72 hours treatment, CellTiter96; read-out: anti-proliferation activity Molm-14 (FLT3-ITD), IC50 ranking
Procedure, shortened: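 Molm-14 (FLT3-ITD AML) cells in RPMI 1640 with 10% heat-inactivated FBS were seeded at 25000 cells/well, incubated overnight at 37° C, 5% CO2, then treated with increasing compound concentrations for 72 hours. Viability was read as absorbance at 490 nm after 2˜4 hours with CellTiter96 AQueous One reagent.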

[2] = tested on: A375 melanoma cell with BRAF V600E mutation; assay: A375 cell proliferation assay (counter screen); assay type: cell-based, human; settings: Homo sapiens, A-375, A375 cells, 72 hours treatment, CellTiter96, read-out: anti-proliferation activity A375 BRAF V600E, IC50 ranking
Procedure, shortened: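 A375 cells (BRAF V600E) seeded at 2000 cells/well in DMEM with 10% FBS, settled overnight at 37° C, 5% CO2, then exposed to increasing compound concentrations for 72 hours. Viability read by MTS-type CellTiter96 AQueous reagent, absorbance at 490 nm after 2–4 hours.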

T2 sequence (P08581 25-1390): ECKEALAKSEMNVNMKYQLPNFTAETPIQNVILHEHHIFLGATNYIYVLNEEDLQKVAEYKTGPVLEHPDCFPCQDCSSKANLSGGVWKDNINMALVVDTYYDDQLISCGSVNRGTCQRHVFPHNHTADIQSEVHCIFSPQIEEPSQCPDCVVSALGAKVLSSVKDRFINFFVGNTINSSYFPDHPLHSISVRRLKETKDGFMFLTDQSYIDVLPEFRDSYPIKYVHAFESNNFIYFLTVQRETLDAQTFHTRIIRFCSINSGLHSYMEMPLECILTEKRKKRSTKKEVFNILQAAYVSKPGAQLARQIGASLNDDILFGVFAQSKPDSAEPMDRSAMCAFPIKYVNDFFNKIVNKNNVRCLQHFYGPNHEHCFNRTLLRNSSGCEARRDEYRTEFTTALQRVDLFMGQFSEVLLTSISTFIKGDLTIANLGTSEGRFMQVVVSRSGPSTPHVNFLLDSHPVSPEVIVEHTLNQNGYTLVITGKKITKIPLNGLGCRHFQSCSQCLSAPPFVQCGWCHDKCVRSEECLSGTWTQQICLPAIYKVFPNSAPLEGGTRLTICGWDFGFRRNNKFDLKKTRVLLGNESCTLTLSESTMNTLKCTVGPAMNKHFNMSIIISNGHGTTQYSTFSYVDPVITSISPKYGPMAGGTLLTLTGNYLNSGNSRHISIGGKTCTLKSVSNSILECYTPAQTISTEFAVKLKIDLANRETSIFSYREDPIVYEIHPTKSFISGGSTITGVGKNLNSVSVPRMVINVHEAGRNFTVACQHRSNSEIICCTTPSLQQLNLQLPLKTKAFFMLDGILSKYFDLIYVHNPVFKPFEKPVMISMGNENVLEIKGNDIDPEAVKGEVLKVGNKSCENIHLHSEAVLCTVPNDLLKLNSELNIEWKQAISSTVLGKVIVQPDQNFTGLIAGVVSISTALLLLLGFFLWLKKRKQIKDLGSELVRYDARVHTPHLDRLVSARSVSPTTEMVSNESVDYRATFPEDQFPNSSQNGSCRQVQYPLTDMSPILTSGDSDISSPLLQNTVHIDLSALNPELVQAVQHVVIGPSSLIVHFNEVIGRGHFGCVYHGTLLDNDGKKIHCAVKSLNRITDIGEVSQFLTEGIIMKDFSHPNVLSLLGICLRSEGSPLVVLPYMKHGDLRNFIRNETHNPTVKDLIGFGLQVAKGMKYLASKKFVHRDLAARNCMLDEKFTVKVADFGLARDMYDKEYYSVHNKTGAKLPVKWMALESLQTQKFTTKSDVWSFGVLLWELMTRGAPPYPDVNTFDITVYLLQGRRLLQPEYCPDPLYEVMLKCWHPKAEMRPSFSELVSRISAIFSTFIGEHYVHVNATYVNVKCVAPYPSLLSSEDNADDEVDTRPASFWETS

**Q.** Cn1ncc2ccc(-c3n[nH]c4c3Cc3sc(-c5ccc(CN6CCC6)cc5)cc3-4)cc21 [Compound 103, 6-(4-(azetidin-1-ylmethyl)phenyl)-3-(1-methyl-1H-indazol-6-yl)-1,4-dihydro-thieno[2′,3′:4,5]cyclopenta [1,2-c]pyrazole] was tested. Which IC50 (FLT3-D835Y mutant kinase) did it give?
**A.** Its IC50 is < 0.001 µM.

**Q.** What about the IC50 (MET kinase) of the same compound?
**A.** The IC50 was 0.3 to 1 µM.

**Q.** And the IC50 [1]?
**A.** The IC50 was 0.03 to 0.1 µM.

**Q.** And the IC50 [2]?
**A.** The IC50 was > 10 µM.

**Q.** Which IC50 (FLT3-D835Y mutant kinase) does the source give for Cn1ncc2ccc(-c3n[nH]c4c3Cc3sc(-c5ccc(CN6CC(F)(F)C6)cc5)cc3-4)cc21 [Compound 104, 6-(4-((3,3-difluoroazeti-din-1-yl)methyl)phenyl)-3-(1-methyl-1H-indazol-6-yl)-1,4-dihydrothieno [2′,3′:4,5]cyclopenta [1,2-c]pyrazole] here?
**A.** Its IC50 is 0.001 to 0.01 µM.

**Q.** What about the IC50 (MET kinase) of the same compound?
**A.** Its IC50 is > 1 µM.

**Q.** What about the IC50 [1] of the same compound?
**A.** The IC50 was 0.1 to 0.3 µM.

**Q.** And the IC50 [2]?
**A.** The IC50 was 1 to 10 µM.

**Q.** Which results are given for COC1CN(Cc2ccc(-c3cc4c(s3)Cc3c(-c5ccc6cnn(C)c6c5)n[nH]c3-4)cc2)C1 [Compound 105, 6-(4-((3-methoxyazeti-din-1-yl)methyl)phenyl)-3-(1-methyl-1H-indazol-6-yl)-1,4-dihydrothieno [2′,3′:4,5]cyclopenta [1,2-c]pyrazole]?
**A.** IC50 (FLT3-D835Y mutant kinase): < 0.001 µM; IC50 (MET kinase): 0.3 to 1 µM; IC50 [1]: < 0.03 µM; IC50 [2]: > 10 µM
